The values that follow come from paper PMC9358547 (2022).

Assay [1] deals with HTPu-var-1-G4 (human telomere variant-1, 23-mer) (DNA, G4) TAGGGTTAGGGTTAGGGTTAGGG
The experiment in a line: tryptophan fluorescence quenching titration. The following applies: 30 mM buffer pH 7.0, 0.5 mM EDTA, 25 °C, 4 μM peptide titrated with DNA.

Assay [2] has the same test system. The experiment in a line: circular dichroism titration. The following applies: 30 mM sodium cacodylate pH 7.0, 0.5 mM EDTA, 6 μM DNA, apparent constant. In general terms: Circular dichroism is widely used to follow secondary structure.
The test system is the same in assay [3]. The experiment in a line: electrophoretic mobility shift assay with complementary strand HTPy-var-1. The following applies: 100 mM K+; 30 mM sodium cacodylate pH 7.0, 1 mM EDTA; DNA:peptide 1:120, 1:160; excess HTPy-var-1 added afterwards. (In general: Mobility shift assays separate free from complexed probe on a gel.)
The test system is the same in assay [4]. Put plainly: UV melting at 295 nm. To be noted: 30 mM sodium cacodylate pH 7.0, 0.5 mM EDTA, 4 μM DNA.

With H-VAQKW-OH, the Kb was found to be 0.71 ± 0.42 µM in assay [1] (100 mM K+), 0.46 ± 0.11 µM in assay [1] (100 mM Na+), 290 ± 10 µM in assay [2] (100 mM K+) and 260 ± 30 µM in assay [2] (100 mM Na+). In addition, the binding result in assay [3] is “yes”. Besides, the ΔTm – broadly, the shift of the melting midpoint relative to a reference – was -1.0 °C in assay [4] (100 mM K+, DNA:peptide 1:40, non-monotonic (66.1 at 1:80)) and -0.9 °C in assay [4] (100 mM Na+, DNA:peptide 1:230).
